Drawing on ChEMBL document CHEMBL2363022, “Malaria Box Schistosomiasis Screening Data” (2013), this text covers Toxicity for 39 compounds.

What all share (type): functional
Parameters in all cases: scale not given here

In test [1] the test system is Schistosoma mansoni.
Test [2] relates to Schistosoma mansoni. This is another data set of the same source.
The subject of test [3] is Schistosoma mansoni. The source holds these as a separate data set.

`CC(C)(C)c1ccc2c(c1)CN(Cc1ccc(Cl)cc1)CO2`: the Toxicity with Schistosoma mansoni [1], in the test with Schistosoma mansoni [2] and in the test on Schistosoma mansoni [3] was 0 each time.

As for `CC1CCCCN1CCCNC(=O)c1ccc2c(c1)sc1nc(-c3ccc(F)cc3)cn12` (configuration not stated), the Toxicity with Schistosoma mansoni [1] was determined as 1; in the test with Schistosoma mansoni [2], 2; in the test on Schistosoma mansoni [3] it was 0.

Turning to `Cc1sc(NC(=O)c2ccccc2)c(C(c2cccs2)N2CCN(c3ccccc3)CC2)c1C` (configuration not stated), the Toxicity in the test on Schistosoma mansoni [1], with Schistosoma mansoni [2] and with Schistosoma mansoni [3] was 0 each time.

As for `COc1ccc(-c2nonc2NC(=O)c2cccc(Cl)c2)cc1OC`, the Toxicity in the test with Schistosoma mansoni [1], in the test on Schistosoma mansoni [2] and in the test with Schistosoma mansoni [3] was 0 in each case.

As to `CCOc1ccc(-n2cc(-c3ccccc3)c3c(SCc4cc(C)ccc4C)ncnc32)cc1`, the Toxicity with Schistosoma mansoni [1], with Schistosoma mansoni [2] and in the test with Schistosoma mansoni [3] was 0 in each case.

On to `CCn1c(SCC(=O)Nc2cc(C(F)(F)F)ccc2Cl)nc2ccccc2c1=O`, for which the Toxicity with Schistosoma mansoni [1], in the test with Schistosoma mansoni [2] and with Schistosoma mansoni [3] was 0 in each case.

Consider `Cc1ccc(Nc2nc(-c3ccccn3)cs2)cc1`, for which the Toxicity with Schistosoma mansoni [1], in the test with Schistosoma mansoni [2] and with Schistosoma mansoni [3] was 0 in each case.

Turning to `CCOC(=O)c1c(NC(=O)c2ccccc2)sc2c(O)c(CN(CC)CC)ccc12`, the Toxicity with Schistosoma mansoni [1], in the test with Schistosoma mansoni [2] and in the test on Schistosoma mansoni [3] was 0 each time.

In the case of `COc1cccc(C(=O)Nc2ccc(-c3nc4ccccc4[nH]3)cc2)c1`, the Toxicity in the test with Schistosoma mansoni [1], in the test with Schistosoma mansoni [2] and in the test on Schistosoma mansoni [3] was 0 in each case.

Consider `CCC(c1ccccc1)c1nn2c(-c3cccs3)nnc2s1` (configuration not stated), for which the Toxicity in the test with Schistosoma mansoni [1], in the test on Schistosoma mansoni [2] and with Schistosoma mansoni [3] was 0 throughout.

For `COc1cccc(-c2nn(C)c3sc(C(=O)NCCN4CCN(c5ccccc5F)CC4)cc23)c1`, the Toxicity in the test on Schistosoma mansoni [1] was 3; in the test with Schistosoma mansoni [2] it was 0; in the test with Schistosoma mansoni [3], 0.

For the compound `O=C(Nc1cccc(C2=NCCN2)c1)Nc1cccc(C2=NCCN2)c1` [IMIDOCARB], the Toxicity with Schistosoma mansoni [1], in the test with Schistosoma mansoni [2] and in the test on Schistosoma mansoni [3] was 0 throughout.

In the case of `CCOC(=O)c1cnc2c(C)cccc2c1Nc1ccc(C(C)=O)cc1`, the Toxicity in the test on Schistosoma mansoni [1], with Schistosoma mansoni [2] and in the test with Schistosoma mansoni [3] was 0 in each case.

Regarding `CCCN(CCC)CC(O)COc1ccccc1C(=O)Nc1ccccc1` (configuration not stated), the Toxicity in the test with Schistosoma mansoni [1], in the test with Schistosoma mansoni [2] and with Schistosoma mansoni [3] was 0 each time.

As for `COCCNC(=O)c1ccc(OC2CCN(Cc3ccc(F)c(F)c3)CC2)c(Cl)c1`, the Toxicity in the test with Schistosoma mansoni [1], in the test on Schistosoma mansoni [2] and in the test on Schistosoma mansoni [3] was 0 throughout.

As to `COc1ccc(-c2nc(N3CCN(C(=O)C4CCCCC4)CC3)c3c4c(sc3n2)CCCC4)cc1`, the Toxicity in the test with Schistosoma mansoni [1], in the test with Schistosoma mansoni [2] and with Schistosoma mansoni [3] was 0 in each case.

Take `O=C(c1ccccc1F)N(Cc1ccc(Cl)cc1)c1ccccn1`: the Toxicity with Schistosoma mansoni [1], in the test with Schistosoma mansoni [2] and in the test with Schistosoma mansoni [3] was 0 each time.

Regarding `COc1ccc(N2CCN(C(CNC(=O)CC(C)(C)C)c3ccc4c(c3)OCO4)CC2)cc1` (configuration not stated), the Toxicity in the test on Schistosoma mansoni [1], with Schistosoma mansoni [2] and in the test with Schistosoma mansoni [3] was 0 in each case.

Take `Cc1cc(C)c2c(c1)OCN(Cc1ccccc1Cl)C2`: the Toxicity turned out to be 2 with Schistosoma mansoni [1], 0 in the test on Schistosoma mansoni [2] and 0 in the test on Schistosoma mansoni [3].

As for `Cc1cc(C=C2SC(=Nc3ccccc3)N(C3CCCC3)C2=O)c(C)n1-c1ccc(Cl)cc1`, the Toxicity with Schistosoma mansoni [1], in the test with Schistosoma mansoni [2] and in the test with Schistosoma mansoni [3] was 0 throughout.

For the compound `COCCn1c(C)nc2ccccc2c1=O`, the Toxicity in the test with Schistosoma mansoni [1], with Schistosoma mansoni [2] and in the test with Schistosoma mansoni [3] was 0 in each case.

Turning to `CN1CCN(c2ccc(Nc3c4ccccc4nc4ccccc34)cc2)CC1`, the figures for the Toxicity with Schistosoma mansoni [1], with Schistosoma mansoni [2] and with Schistosoma mansoni [3] were 4, 2 and 4, respectively.

With `COc1ccc(CNC(=O)c2cc3c(=O)n4ccccc4nc3n(CCc3ccccc3)c2=N)cc1`, the Toxicity was determined as 4 in the test with Schistosoma mansoni [1], 1 in the test with Schistosoma mansoni [2] and 4 with Schistosoma mansoni [3].

With `O=C(NCC(c1ccsc1)N1CCCCCC1)c1ccc(C(F)(F)F)cc1` (configuration not stated), the Toxicity in the test on Schistosoma mansoni [1], in the test on Schistosoma mansoni [2] and in the test on Schistosoma mansoni [3] was 0 each time.

Take `CCCC(c1nnnn1C1CCCCC1)N1CCN(C(=O)c2ccco2)CC1.Cl` (configuration not stated): the Toxicity with Schistosoma mansoni [1], in the test on Schistosoma mansoni [2] and with Schistosoma mansoni [3] was 0 in each case.

Turning to `COc1ccc(C2Sc3ccccc3N=C3C2=C(O)c2ccccc23)cc1` (configuration not stated), the Toxicity with Schistosoma mansoni [1], in the test on Schistosoma mansoni [2] and with Schistosoma mansoni [3] was 0 in each case.

Regarding `CCOC(=O)c1cnc2c(C)cc(C)cc2c1Nc1ccc(OC)c(OC)c1`, the Toxicity stood at 0 in the test on Schistosoma mansoni [1], 0 in the test with Schistosoma mansoni [2] and 2 in the test on Schistosoma mansoni [3].

As for `COc1ccc(Nc2cc(C)nc(NCc3ccccc3)n2)cc1`, the Toxicity with Schistosoma mansoni [1] is 3; in the test on Schistosoma mansoni [2], 2; with Schistosoma mansoni [3] it was 3.

Regarding `O=C(NNc1cc(N2CCCC2)nc(N2CCCC2)n1)c1ccccc1`, the Toxicity amounted to 4 in the test on Schistosoma mansoni [1], 1 in the test on Schistosoma mansoni [2] and 0 in the test with Schistosoma mansoni [3].

With `O=C(NC1CCCC1)c1ccc(N2CCC(NCc3cccc(C(F)(F)F)c3)CC2)cc1`, the Toxicity in the test with Schistosoma mansoni [1] is on record as 1; in the test on Schistosoma mansoni [2], 0; in the test on Schistosoma mansoni [3] it was 0.

Take `CCN1CCN(Cc2ccc(NC(=O)c3cc4ccc5cccnc5c4[nH]3)cc2)CC1`: the Toxicity amounted to 0 with Schistosoma mansoni [1], 0 with Schistosoma mansoni [2] and 1 in the test with Schistosoma mansoni [3].

As to `COc1cc(SC)ccc1C(=O)N1CCCC(C)C1` (configuration not stated), the Toxicity in the test with Schistosoma mansoni [1], with Schistosoma mansoni [2] and with Schistosoma mansoni [3] was 0 each time.

For the compound `O=C(O)C1Cc2c([nH]c3ccccc23)C(c2ccc(Cl)cc2Cl)N1` (configuration not stated), the Toxicity in the test with Schistosoma mansoni [1], in the test on Schistosoma mansoni [2] and with Schistosoma mansoni [3] was 0 throughout.

For the compound `Br.Cc1ccc(C)c(-c2csc(Nc3ccc(C)c(C)c3)n2)c1`, the Toxicity in the test on Schistosoma mansoni [1] is listed as 0; in the test with Schistosoma mansoni [2] it was 0; in the test on Schistosoma mansoni [3], 1.

Take `CCOC(=O)C1(Cc2ccccc2)CCN(Cc2cccc(OC)c2O)CC1`: the Toxicity in the test on Schistosoma mansoni [1] is listed as 2; with Schistosoma mansoni [2] it was 1; in the test with Schistosoma mansoni [3], 1.

As for `COc1ccc(C(=O)Nc2nonc2-c2ccc(OC)c(OC)c2)cc1Cl`, the Toxicity in the test on Schistosoma mansoni [1], with Schistosoma mansoni [2] and in the test with Schistosoma mansoni [3] was 0 throughout.

`O=C(NCCCN1CCC(N2CCCCC2)CC1)C1=Cc2cc(Br)ccc2OC1`: the Toxicity with Schistosoma mansoni [1] came to 4; in the test with Schistosoma mansoni [2] it was 0; in the test with Schistosoma mansoni [3] it was 1.

For `COc1ccc(NC(=O)C2c3ccccc3C(=O)N(CC(C)C)C2c2cccs2)cc1Cl` (configuration not stated), the Toxicity with Schistosoma mansoni [1], in the test on Schistosoma mansoni [2] and in the test with Schistosoma mansoni [3] was 0 each time.

Consider `COc1ccc(C2c3ccc4ccccc4c3Oc3ncn(CCCN(C)C)c(=N)c32)cc1` (configuration not stated), for which the Toxicity in the test with Schistosoma mansoni [1], with Schistosoma mansoni [2] and with Schistosoma mansoni [3] was 4 throughout.
